Measurements as given in article PMC3487895, “Artepillin C, a Major Ingredient of Brazilian Propolis, Induces a Pungent Taste by Activating TRPA1 Channels” (PLoS ONE, 2012).

Experiments:
[1] = target: T1, human transient receptor potential ankyrin 1 (hTRPA1) (Homo sapiens, UniProt O75762); test: calcium influx (FLIPR Calcium […] plate reader and Fura-2 imaging) in hTRPA1-expressing Flp-In […] cells; blocked by HC-030031, absent in parental cells; assay type: cell-based
T1 construct: gene TRPA1; entire coding region (NM_007332.2)

[2] = target: T1, human transient receptor potential ankyrin 1 (hTRPA1); test: calcium influx (FLIPR Calcium […] plate reader and Fura-2 imaging) in hTRPA1-expressing Flp-In […] cells; blocked by HC-030031; assay type: cell-based

T1 sequence (O75762 whole entry): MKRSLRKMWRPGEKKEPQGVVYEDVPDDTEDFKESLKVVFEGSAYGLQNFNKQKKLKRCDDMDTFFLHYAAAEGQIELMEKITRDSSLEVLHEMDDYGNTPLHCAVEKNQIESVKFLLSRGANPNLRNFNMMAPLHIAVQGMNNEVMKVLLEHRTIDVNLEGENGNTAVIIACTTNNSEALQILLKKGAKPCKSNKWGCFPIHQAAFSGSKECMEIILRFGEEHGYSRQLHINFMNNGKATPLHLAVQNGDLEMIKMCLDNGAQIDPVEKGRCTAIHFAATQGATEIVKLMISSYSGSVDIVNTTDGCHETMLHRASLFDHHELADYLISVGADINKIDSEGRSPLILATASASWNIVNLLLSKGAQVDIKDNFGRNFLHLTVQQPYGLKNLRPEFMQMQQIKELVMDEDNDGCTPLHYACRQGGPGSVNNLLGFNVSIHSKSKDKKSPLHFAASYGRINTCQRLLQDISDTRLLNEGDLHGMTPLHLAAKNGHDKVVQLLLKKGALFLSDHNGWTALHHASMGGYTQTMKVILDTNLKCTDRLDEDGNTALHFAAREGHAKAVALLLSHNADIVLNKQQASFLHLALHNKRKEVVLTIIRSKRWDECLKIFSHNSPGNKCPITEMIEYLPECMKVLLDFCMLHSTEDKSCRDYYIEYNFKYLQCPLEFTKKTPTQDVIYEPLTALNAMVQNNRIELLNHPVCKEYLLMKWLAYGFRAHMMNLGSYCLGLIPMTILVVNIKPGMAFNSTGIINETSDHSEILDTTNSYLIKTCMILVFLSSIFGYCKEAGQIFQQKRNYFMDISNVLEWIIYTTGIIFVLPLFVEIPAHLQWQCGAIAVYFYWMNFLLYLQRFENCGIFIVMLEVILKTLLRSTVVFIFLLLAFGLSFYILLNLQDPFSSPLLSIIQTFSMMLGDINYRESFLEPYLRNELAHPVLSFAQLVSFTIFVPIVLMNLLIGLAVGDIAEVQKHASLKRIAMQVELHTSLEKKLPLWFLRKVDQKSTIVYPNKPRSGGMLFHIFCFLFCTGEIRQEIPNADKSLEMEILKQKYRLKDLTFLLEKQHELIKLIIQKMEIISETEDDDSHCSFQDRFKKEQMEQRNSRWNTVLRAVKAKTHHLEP

Row | EC50 [1] | EC50 [2] | Structure (SMILES)
1 | 1.8 µM |  | CC(C)=CCc1cc(/C=C/C(=O)O)cc(CC=C(C)C)c1O [artepillin C, 3,5-diprenyl-4-hydroxycinnamic acid]
2 |  | 15.5 µM | CC(C)=CCc1cc(/C=C/C(=O)O)ccc1OC(=O)CCc1ccccc1 [baccharin, (E)-3-prenyl-4-(2,3-dihydrocinnamoyloxy) cinnamic acid]
